Measurements: ChEMBL document CHEMBL1148786, “L-(+)-2-Amino-4-thiophosphonobutyric acid (L-thioAP4), a new potent agonist of group III metabotropic glutamate receptors: increased distal acidity affords enhanced potency” (J Med Chem, 2007)
Active and inactive are the calls of the source. The rule behind the calls is not given here.

What was measured:
[1] = target: Metabotropic glutamate receptor 3 (Homo sapiens) (UniProt Q14832); experiment: Activity at mGluR3 receptor at 100 uM
[2] = target: Metabotropic glutamate receptor 5 (Homo sapiens) (UniProt P41594); experiment: Activity at mGluR5 receptor at 100 uM
Chain of Metabotropic glutamate receptor 5 (Homo sapiens) (P41594 21-1212 limits assumed): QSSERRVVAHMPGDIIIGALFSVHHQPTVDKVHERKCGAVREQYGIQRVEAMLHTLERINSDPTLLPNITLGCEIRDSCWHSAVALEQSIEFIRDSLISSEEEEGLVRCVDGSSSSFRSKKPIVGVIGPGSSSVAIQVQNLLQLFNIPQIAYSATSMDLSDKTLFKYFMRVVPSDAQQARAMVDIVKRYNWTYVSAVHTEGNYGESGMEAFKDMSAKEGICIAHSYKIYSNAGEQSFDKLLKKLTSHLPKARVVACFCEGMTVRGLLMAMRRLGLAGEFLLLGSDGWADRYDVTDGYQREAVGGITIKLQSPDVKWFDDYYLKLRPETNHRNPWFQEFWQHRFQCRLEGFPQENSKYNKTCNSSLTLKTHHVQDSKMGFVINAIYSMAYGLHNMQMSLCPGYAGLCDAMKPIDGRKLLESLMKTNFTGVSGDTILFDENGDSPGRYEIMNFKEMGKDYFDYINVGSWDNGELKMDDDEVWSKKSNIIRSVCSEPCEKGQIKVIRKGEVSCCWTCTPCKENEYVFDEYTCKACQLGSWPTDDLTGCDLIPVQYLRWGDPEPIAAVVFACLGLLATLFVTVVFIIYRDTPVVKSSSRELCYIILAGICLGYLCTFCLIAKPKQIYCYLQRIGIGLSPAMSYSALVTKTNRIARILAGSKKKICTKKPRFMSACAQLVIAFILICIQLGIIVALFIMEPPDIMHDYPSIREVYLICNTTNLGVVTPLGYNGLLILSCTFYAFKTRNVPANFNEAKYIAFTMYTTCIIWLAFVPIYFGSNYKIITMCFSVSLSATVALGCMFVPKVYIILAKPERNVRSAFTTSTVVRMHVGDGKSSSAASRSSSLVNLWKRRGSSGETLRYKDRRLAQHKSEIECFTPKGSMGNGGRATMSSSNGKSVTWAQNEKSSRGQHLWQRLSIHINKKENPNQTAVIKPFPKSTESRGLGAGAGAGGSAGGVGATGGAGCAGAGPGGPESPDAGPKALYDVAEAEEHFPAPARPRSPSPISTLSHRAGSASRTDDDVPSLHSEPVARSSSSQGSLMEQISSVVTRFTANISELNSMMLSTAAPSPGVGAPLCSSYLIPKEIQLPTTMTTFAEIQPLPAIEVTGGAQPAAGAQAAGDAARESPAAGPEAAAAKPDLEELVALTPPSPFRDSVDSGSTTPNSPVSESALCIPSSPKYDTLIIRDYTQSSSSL

[3] = target: Metabotropic glutamate receptor 2 (Homo sapiens) (UniProt Q14416); experiment: Activity at mGluR2 receptor at 100 uM
Chain of Metabotropic glutamate receptor 2 (Homo sapiens) (Q14416 19-872 limits assumed): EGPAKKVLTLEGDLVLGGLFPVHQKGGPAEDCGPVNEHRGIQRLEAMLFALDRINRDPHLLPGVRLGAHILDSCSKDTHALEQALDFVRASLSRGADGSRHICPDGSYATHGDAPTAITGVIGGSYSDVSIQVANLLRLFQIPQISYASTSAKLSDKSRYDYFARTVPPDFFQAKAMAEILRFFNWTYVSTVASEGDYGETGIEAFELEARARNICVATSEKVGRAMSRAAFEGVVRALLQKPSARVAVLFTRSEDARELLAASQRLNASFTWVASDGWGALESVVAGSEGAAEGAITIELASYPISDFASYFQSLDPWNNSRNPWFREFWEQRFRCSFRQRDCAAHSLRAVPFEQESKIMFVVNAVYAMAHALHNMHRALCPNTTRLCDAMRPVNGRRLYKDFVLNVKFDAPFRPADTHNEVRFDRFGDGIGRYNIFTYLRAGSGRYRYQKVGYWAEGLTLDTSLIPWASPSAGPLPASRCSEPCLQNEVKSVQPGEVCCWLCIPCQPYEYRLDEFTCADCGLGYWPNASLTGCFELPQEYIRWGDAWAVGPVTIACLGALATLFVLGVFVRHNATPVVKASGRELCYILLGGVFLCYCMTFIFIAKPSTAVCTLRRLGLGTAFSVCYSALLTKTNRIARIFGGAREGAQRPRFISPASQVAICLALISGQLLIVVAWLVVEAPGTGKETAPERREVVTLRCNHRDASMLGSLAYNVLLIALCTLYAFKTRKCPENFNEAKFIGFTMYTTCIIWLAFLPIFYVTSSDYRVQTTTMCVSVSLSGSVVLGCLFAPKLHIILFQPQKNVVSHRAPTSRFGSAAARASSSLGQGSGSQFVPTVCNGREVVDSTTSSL

[4] = target: Metabotropic glutamate receptor 1 (Homo sapiens) (UniProt Q13255); experiment: Activity at mGluR1 receptor at 100 uM
Chain of Metabotropic glutamate receptor 1 (Homo sapiens) (Q13255 19-1194 limits assumed): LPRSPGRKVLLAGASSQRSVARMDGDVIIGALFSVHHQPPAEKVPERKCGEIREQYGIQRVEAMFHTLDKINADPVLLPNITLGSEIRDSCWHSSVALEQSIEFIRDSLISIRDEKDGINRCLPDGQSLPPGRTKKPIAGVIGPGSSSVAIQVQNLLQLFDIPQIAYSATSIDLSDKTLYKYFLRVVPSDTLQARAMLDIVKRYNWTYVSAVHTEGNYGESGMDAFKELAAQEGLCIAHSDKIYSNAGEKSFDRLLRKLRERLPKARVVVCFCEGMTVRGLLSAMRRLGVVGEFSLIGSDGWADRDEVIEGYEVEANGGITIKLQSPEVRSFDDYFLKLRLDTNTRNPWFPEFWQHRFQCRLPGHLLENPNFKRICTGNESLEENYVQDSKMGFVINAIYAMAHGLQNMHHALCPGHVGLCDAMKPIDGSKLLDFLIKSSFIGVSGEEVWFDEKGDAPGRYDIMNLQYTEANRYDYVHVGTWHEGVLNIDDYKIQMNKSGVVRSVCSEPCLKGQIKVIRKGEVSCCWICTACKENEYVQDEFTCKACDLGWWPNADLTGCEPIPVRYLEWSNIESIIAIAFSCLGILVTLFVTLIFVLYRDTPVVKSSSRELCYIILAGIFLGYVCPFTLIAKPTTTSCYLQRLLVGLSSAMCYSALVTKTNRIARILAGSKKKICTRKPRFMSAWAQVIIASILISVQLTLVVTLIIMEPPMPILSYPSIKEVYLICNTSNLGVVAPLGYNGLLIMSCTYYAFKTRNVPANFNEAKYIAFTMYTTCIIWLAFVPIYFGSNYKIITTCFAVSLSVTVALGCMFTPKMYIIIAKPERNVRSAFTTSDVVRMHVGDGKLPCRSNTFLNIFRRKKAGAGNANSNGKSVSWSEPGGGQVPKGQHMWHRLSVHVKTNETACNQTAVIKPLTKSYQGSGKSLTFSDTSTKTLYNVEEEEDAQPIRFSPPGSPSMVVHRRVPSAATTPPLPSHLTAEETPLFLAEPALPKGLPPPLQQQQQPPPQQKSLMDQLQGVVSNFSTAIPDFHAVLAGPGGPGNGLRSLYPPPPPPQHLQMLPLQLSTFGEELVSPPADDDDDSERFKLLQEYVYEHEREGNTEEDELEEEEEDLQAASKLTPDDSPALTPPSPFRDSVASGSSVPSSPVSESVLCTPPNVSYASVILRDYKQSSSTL

[5] = target: Metabotropic glutamate receptor 8 (Rattus norvegicus, UniProt P70579); experiment: Agonist activity at rat mGluR8 receptor expressed HEK293 cells assessed as effect on inositol phosphate production; assay type: functional, cell-based
[6] = target: Metabotropic glutamate receptor 6 (Rattus norvegicus, UniProt P35349); experiment: Agonist activity at rat mGluR6 receptor expressed HEK293 cells assessed as effect on inositol phosphate production; assay type: functional, cell-based
[7] = target: Metabotropic glutamate receptor 7 (Rattus norvegicus, UniProt P35400); experiment: Agonist activity at rat mGluR7 receptor expressed HEK293 cells assessed as effect on inositol phosphate production; assay type: functional, cell-based
Chain of Metabotropic glutamate receptor 7 (P35400 whole entry): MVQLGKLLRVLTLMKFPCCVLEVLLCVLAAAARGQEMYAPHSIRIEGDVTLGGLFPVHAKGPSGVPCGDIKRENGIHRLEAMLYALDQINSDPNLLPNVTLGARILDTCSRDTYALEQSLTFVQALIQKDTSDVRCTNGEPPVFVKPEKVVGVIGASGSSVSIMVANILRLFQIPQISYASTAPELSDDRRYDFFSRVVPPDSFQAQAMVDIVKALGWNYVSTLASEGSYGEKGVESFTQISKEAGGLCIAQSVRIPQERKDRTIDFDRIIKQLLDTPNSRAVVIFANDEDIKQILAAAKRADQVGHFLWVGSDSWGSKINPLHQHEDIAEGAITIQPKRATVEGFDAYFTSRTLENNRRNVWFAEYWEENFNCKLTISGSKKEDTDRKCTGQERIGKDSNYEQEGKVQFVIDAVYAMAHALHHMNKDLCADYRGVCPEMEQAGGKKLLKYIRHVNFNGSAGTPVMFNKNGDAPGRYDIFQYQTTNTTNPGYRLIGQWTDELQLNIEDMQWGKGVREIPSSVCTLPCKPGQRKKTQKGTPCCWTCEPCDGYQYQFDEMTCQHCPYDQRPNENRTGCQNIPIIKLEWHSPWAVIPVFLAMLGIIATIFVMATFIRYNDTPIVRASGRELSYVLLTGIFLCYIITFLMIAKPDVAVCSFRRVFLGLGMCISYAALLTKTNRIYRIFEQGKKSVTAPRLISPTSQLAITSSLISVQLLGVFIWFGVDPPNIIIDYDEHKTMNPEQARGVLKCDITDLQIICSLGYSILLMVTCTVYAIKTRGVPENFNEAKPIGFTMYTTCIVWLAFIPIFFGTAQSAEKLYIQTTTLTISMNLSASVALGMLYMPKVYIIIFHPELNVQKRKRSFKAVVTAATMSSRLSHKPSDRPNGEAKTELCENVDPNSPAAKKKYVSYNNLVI

[8] = target: Metabotropic glutamate receptor 4 (Rattus norvegicus, UniProt P31423); experiment: Agonist activity at rat mGluR4 receptor expressed HEK293 cells assessed as effect on inositol phosphate production; assay type: functional, cell-based

Chain of Metabotropic glutamate receptor 3 (Homo sapiens) (Q14832 23-879 limits assumed): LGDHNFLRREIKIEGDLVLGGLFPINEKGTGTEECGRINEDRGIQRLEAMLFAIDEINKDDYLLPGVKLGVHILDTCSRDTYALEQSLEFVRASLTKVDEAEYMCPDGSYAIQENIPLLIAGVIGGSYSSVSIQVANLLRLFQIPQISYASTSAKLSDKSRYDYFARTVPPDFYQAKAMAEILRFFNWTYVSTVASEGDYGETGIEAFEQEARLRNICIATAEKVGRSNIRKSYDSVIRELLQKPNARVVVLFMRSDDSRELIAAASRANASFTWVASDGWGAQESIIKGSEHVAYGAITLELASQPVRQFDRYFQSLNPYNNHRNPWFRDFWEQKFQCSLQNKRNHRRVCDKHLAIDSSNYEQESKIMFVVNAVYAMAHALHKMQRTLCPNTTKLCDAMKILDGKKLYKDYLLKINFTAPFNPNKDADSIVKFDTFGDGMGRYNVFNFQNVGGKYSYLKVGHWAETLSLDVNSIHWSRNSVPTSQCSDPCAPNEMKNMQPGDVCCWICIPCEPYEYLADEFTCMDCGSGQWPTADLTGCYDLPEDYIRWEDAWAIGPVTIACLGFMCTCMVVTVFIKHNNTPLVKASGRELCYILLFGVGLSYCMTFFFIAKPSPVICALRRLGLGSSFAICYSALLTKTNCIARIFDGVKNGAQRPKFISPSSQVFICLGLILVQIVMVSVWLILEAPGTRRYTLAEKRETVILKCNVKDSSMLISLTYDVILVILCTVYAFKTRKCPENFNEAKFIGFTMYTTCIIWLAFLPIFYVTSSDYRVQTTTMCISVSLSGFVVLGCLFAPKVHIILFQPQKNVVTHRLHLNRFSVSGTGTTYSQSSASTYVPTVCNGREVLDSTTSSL

| SMILES | Activity [1] | Activity [2] | Activity [3] | Activity [4] | EC50 [5] | EC50 [6] | EC50 [7] | EC50 [8] |
| --- | --- | --- | --- | --- | --- | --- | --- | --- |
| N[C@@H](CCP(O)(O)=S)C(=O)O | inactive | inactive | inactive | inactive |  |  |  |  |
| CP(=O)(O)CC[C@H](N)C(=O)O [PHOSPHINOTHRICIN] | inactive | inactive | inactive | inactive | 412 µM | > 500 µM | > 500 µM | 1100 µM |
| N[C@@H](CCP(=O)(O)O)C(=O)O | inactive | inactive | inactive | inactive |  |  |  |  |
| N[C@@H](CC[PH](=O)O)C(=O)O | inactive | inactive | inactive | inactive | 1.72 µM | 27.8 µM | > 500 µM | 4.05 µM |
